What all share (assay): Ba/F3 cell viability, Cell Titer Glo
(In general: ATP-based viability assays read luminescence as a measure of living cells.)

Assay [1] has as its target EGFR l740duplPVAK (Homo sapiens, UniProt P00533, DUP740-745). As to conditions: read-out: IC50 Values; Ba/F3 cells expressing EGFR l740duplPVAK, 72 hours.
Assay [2] concerns the target EGFR L858R/V834L (Homo sapiens, UniProt P00533, L858R/V834L). The note with it: read-out: IC50 Values; Ba/F3 cells expressing EGFR L858R/V834L, 72 hours.
In assay [3] the target is EGFR S768I (Homo sapiens, UniProt P00533, S768I). As to conditions: read-out: IC50 Values; Ba/F3 cells expressing EGFR S768I, 72 hours.
Assay [4] has as its target EGFR L718Q (Homo sapiens, UniProt P00533, L718Q). As to conditions: read-out: IC50 Values; Ba/F3 cells expressing EGFR L718Q, 72 hours.
In assay [5] the target is EGFR L858R S784F (Homo sapiens, UniProt P00533, L858R/S784F). As to conditions: read-out: IC50 Values; Ba/F3 cells expressing EGFR L858R S784F, 72 hours.
For assay [6], the target named is EGFR L858R/C797S (Homo sapiens, UniProt P00533, C797S/L858R). As to conditions: read-out: IC50 Values; Ba/F3 cells expressing EGFR L858R/C797S, 72 hours.
Assay [7] addresses EGFR L747 K754del insATSPE (Homo sapiens, UniProt P00533, DEL747-749/K754E). As to conditions: read-out: IC50 Values; Ba/F3 cells expressing EGFR L747 K754del insATSPE, 72 hours.
For assay [8], the target named is EGFR L858R T790M L792H (Homo sapiens, UniProt P00533, L792H/L858R/T790M). As to conditions: read-out: IC50 Values; Ba/F3 cells expressing EGFR L858R T790M L792H, 72 hours.
The target in assay [9] is EGFR L858R/T790M (Homo sapiens, UniProt P00533, L858R/T790M). As to conditions: read-out: IC50 Values; Ba/F3 cells expressing EGFR L858R/T790M, 72 hours.
Assay [10] concerns the target EGFR G719A L861Q (Homo sapiens, UniProt P00533, G719A/L861Q). The note with it: read-out: IC50 Values; Ba/F3 cells expressing EGFR G719A L861Q, 72 hours.
Assay [11] has as its target EGFR L833V (Homo sapiens, UniProt P00533, L833V). As to conditions: read-out: IC50 Values; Ba/F3 cells expressing EGFR L833V, 72 hours.
The target in assay [12] is EGFR Ex19del L718V (Homo sapiens, UniProt P00533, DEL746-750/L718V). The note with it: read-out: IC50 Values; Ba/F3 cells expressing EGFR Ex19del L718V, 72 hours.
In assay [13] the target is EGFR S768I/V769L (Homo sapiens, UniProt P00533, S768I/V769L). The note with it: read-out: IC50 Values; Ba/F3 cells expressing EGFR S768I/V769L, 72 hours.
For assay [14], the target named is EGFR Ex19del/T790M/G724S (Homo sapiens, UniProt P00533, DEL746-750/G724S/T790M). As to conditions: read-out: IC50 Values; Ba/F3 cells expressing EGFR Ex19del/T790M/G724S, 72 hours.
Assay [15] addresses EGFR L861R (Homo sapiens, UniProt P00533, L861R). The note with it: read-out: IC50 Values; Ba/F3 cells expressing EGFR L861R, 72 hours.
For assay [16], the target named is EGFR L747P (Homo sapiens, UniProt P00533, L747P). As to conditions: read-out: IC50 Values; Ba/F3 cells expressing EGFR L747P, 72 hours.
Assay [17] has as its target EGFR L858R T790M L718V (Homo sapiens, UniProt P00533, L718V/L858R/T790M). The note with it: read-out: IC50 Values; Ba/F3 cells expressing EGFR L858R T790M L718V, 72 hours.
In assay [18] the target is EGFR N771dupN G724S (Homo sapiens, UniProt P00533, DUP771-771/G724S). The note with it: read-out: IC50 Values; Ba/F3 cells expressing EGFR N771dupN G724S, 72 hours.
In assay [19] the target is EGFR L858R G796S (Homo sapiens, UniProt P00533, G796S/L858R). As to conditions: read-out: IC50 Values; Ba/F3 cells expressing EGFR L858R G796S, 72 hours.
Assay [20] concerns the target EGFR G719A (Homo sapiens, UniProt P00533, G719A). As to conditions: read-out: IC50 Values; Ba/F3 cells expressing EGFR G719A, 72 hours.

Sequence of EGFR L858R T790M L718V (P00533 25-1210 L718V/T790M/L858R): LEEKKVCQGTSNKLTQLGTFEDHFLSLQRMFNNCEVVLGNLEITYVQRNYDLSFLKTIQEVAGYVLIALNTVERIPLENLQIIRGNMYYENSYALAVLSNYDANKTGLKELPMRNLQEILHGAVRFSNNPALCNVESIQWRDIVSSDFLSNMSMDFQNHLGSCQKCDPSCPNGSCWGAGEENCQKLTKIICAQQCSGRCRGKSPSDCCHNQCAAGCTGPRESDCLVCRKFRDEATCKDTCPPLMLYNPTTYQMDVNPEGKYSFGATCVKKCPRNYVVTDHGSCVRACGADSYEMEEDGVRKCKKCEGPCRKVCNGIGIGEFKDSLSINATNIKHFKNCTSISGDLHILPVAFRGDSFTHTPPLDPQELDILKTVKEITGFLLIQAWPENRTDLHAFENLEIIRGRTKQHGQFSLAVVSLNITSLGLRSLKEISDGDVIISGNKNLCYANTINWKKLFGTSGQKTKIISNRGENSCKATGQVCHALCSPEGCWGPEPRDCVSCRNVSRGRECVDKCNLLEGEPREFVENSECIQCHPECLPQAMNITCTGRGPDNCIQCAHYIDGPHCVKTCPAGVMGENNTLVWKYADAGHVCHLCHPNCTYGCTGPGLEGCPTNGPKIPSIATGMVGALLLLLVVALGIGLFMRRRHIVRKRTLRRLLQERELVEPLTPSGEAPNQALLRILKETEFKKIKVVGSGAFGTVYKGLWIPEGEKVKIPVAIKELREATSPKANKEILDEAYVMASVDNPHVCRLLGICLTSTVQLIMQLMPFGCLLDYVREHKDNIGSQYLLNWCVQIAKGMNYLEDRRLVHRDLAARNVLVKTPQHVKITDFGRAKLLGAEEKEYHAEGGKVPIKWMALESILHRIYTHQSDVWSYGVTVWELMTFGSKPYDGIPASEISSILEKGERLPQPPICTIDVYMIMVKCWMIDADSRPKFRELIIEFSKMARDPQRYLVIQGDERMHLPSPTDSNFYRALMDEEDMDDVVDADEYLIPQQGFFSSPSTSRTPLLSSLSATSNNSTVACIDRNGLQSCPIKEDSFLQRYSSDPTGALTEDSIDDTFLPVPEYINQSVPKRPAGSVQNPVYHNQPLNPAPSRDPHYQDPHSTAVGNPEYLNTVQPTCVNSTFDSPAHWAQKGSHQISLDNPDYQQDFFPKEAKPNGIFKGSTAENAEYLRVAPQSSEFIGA
Sequence of EGFR l740duplPVAK (P00533 with tags, fused parts or gaps DUP740-745): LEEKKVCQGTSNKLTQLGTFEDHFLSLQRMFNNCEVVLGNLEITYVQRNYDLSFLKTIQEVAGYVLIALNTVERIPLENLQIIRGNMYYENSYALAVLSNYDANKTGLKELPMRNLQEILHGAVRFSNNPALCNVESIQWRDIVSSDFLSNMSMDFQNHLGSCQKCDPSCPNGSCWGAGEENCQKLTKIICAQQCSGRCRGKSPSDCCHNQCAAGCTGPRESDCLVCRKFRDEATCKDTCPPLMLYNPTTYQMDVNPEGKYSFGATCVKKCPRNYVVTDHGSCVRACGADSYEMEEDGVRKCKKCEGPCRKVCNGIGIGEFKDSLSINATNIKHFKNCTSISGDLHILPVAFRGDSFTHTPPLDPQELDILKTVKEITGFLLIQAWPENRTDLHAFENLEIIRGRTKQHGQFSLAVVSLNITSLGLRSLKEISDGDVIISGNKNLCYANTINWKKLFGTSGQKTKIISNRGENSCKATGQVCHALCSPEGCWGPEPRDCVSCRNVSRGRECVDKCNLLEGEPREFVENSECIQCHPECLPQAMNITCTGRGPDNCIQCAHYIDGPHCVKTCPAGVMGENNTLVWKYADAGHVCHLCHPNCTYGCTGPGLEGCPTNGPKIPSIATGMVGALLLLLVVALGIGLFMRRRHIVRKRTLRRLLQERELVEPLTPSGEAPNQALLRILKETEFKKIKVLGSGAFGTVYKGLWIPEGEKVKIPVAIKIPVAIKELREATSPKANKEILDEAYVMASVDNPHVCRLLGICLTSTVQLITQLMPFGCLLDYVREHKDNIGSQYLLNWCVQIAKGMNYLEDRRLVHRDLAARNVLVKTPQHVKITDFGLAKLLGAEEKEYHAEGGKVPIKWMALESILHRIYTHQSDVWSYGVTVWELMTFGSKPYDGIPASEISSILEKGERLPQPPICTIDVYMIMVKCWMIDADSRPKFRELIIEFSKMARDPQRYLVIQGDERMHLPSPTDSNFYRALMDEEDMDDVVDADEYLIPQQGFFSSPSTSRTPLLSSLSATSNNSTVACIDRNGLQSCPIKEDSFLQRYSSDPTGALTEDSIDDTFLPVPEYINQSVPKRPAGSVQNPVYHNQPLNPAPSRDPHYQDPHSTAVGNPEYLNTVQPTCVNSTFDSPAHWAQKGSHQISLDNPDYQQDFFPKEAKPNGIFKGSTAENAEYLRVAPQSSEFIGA
Sequence of EGFR N771dupN G724S (P00533 with tags, fused parts or gaps G724S/DUP771-771): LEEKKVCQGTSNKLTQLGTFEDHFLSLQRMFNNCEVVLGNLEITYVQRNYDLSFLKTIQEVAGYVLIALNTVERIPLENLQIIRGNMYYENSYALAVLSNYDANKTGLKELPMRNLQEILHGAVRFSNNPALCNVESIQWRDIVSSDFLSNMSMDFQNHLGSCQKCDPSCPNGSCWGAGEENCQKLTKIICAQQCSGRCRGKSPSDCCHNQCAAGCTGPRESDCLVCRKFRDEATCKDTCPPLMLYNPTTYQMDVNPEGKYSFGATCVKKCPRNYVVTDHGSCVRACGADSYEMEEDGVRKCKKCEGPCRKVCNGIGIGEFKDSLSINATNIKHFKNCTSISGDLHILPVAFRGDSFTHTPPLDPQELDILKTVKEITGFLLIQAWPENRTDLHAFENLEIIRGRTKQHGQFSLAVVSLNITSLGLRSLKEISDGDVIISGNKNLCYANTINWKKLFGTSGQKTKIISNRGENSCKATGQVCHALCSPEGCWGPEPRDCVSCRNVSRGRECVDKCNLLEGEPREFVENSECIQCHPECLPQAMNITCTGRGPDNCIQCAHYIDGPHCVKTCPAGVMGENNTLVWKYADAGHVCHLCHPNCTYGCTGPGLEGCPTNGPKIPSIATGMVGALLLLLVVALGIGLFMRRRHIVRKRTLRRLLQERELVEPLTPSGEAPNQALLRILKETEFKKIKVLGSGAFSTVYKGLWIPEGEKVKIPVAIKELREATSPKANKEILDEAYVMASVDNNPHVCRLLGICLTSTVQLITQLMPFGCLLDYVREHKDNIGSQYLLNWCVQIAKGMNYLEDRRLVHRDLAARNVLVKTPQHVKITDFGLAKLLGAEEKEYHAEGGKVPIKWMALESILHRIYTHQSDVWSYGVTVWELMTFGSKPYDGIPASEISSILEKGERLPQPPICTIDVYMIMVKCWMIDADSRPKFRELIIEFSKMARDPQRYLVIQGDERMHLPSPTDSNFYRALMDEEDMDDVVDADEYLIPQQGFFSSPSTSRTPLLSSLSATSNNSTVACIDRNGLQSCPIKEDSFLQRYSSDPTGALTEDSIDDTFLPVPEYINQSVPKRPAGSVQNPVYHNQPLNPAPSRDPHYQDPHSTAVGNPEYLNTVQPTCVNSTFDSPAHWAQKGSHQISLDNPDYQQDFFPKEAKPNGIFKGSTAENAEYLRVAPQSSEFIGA
Sequence of EGFR G719A L861Q (P00533 25-1210 G719A/L861Q): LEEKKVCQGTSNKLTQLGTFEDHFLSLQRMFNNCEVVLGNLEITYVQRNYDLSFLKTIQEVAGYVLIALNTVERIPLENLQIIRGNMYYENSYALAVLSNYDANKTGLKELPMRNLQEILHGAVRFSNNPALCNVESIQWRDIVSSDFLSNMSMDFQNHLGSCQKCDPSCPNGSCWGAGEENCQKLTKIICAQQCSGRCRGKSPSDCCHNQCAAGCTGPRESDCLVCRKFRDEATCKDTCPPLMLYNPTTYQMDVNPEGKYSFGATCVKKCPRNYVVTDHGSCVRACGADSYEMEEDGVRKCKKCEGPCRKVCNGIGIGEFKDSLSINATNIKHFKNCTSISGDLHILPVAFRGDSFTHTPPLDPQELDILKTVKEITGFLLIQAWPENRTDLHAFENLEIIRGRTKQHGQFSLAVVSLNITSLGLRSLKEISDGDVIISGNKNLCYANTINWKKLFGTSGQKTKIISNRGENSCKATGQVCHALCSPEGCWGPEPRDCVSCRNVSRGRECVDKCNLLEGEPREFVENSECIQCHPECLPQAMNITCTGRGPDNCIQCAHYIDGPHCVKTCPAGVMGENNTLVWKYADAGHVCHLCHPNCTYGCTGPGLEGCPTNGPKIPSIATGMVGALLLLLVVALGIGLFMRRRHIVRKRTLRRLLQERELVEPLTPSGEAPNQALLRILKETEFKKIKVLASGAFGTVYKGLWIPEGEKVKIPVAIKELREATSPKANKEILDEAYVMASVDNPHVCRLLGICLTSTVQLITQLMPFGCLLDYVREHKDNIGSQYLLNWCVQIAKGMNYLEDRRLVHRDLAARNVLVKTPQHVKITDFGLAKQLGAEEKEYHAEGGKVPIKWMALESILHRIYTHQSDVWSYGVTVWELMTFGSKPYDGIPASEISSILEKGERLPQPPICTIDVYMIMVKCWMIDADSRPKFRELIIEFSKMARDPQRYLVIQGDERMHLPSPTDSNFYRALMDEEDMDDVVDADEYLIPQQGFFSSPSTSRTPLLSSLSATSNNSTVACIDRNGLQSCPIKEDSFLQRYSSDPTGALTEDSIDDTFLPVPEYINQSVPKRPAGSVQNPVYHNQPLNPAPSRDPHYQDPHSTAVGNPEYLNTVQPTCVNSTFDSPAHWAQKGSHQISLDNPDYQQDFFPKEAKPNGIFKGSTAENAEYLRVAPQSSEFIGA

As to `C=CC(=O)N1CC[C@@H](Oc2nc(Nc3ccc(N4CCC(N5CCN(C)CC5)CC4)cc3)c(C(N)=O)nc2CC)C1` [Naquotinib], the IC50 (in general, the midpoint of a concentration-inhibition curve) was determined as 67.7 nM in [1]; 7.19 nM in assay [2]; 503 nM in [3]; 734 nM in assay [4]; 354 nM in assay [5]; 709 nM in assay [6]. In addition, the IC50 amounted to 0.58 nM in assay [7]; 624 nM in assay [8]; 1.88 nM in assay [9]; 4.22 nM in [10]; 402 nM in assay [11]; 13.9 nM in assay [12]. The IC50 in assay [13] was determined as 234 nM; in assay [14], 3.84 nM; in [15] it was 12.2 nM; in assay [16], 472 nM; in assay [17], 4.03 nM; in assay [18], 375 nM. For the same compound, the IC50 in assay [19] came out at 423 nM; in assay [20] it was 18.1 nM.

(Values after US20260240847A1, “COMPOUNDS WITH ANTI-TUMOR ACTIVITY AGAINST CANCER CELLS BEARING TYROSINE KINASE INHIBITOR RESISTANT EGFR MUTATIONS” (BOARD OF REGENTS, THE UNIVERSITY OF TEXAS SYSTEM, priority 2019, published 2026).)
